Measurements from patent US20100136137A1, “THERAPEUTIC COMBINATION OF A PANHER/VEGFR2 KINASE INHIBITOR AND A PLATINUM COMPOUND” (Bristol-Meyers Squibb Company, priority 2006, published 2010).

Assays:
Type in all cases: cell-based
NSCLC cell lines [1] = assay: Anti-proliferative/pro-apoptotic effects in NSCLC cell lines with different EGFR and p53 mutation status
Protocol: (§1) Non-Small Cell Lung Cancer cell lines with different EGFR and p53 mutation status were used. Variable doses of Compound I or cisplatin were used to induce death or proliferative death of the cells. A549 cells were transfected with siRNAs, and transfected cells were cultured for 48 hours prior to the administration of the drugs to attain the maximal down-regulation of the target proteins.

NSCLC cell lines [2] = assay: Apoptosis-associated changes by DiOC63 (Δψm) and propidium iodide (viability) staining
Source text: The fluorochromes, 3,3′-dihexyloxacarbocyanine iodide (DiOC63) and propidium iodide (PI) were employed to determine different apoptosis-associated changes. DiOC63 was used for the loss of mitochondrial transmembrane potential (Δψm) and PI was used for the loss of viability.

A549 cells = assay: siRNA knockdown of apoptosis pathway components in A549 cells, Compound I induced cell death
Protocol: as §1

COc1cccc(Nc2ncnn3ccc(CN4CC[C@@H](N)[C@H](O)C4)c23)c1 [Compound I, 4-Amino-1-[[4-[(3-methoxyphenyl)amino]pyrrolo [2,1-f][1,2,4]triazin-5-yl]methyl]-(3R,4R)-3-piperidinol]
order of sensitivity of cell lines (NSCLC cell lines [1]; NCI-H1975, NCI-H1650, NCIH1299, A549): NCI-H1975>>NCI-H1650=NCIH1299>A549
anti-proliferative/pro-apoptotic effects (NSCLC cell lines [1]; all NSCLC cell lines tested, including wild-type EGFR and T790M mutant): induced anti-proliferative/pro-apoptotic effects in all NSCLC cell lines tested
dissipation of Δψm (marker of early apoptosis) (NSCLC cell lines [2]; DiOC63 staining): induced dissipation of Δψm
incorporation of PI (marker of late apoptosis, loss of viability) (NSCLC cell lines [2]; propidium iodide staining): incorporation of PI
effect of pan-caspase inhibitor z-VAD.fmk on the loss of viability (NSCLC cell lines [2]; with z-VAD.fmk): no effect
effect of pan-caspase inhibitor z-VAD.fmk on the reduction of the Δψm (NSCLC cell lines [2]; with z-VAD.fmk): only a minor protective effect
effect of caspase-2 down-regulation on Compound I induced cell-death (A549 cells; 24 and 48 hours): limited protection against Compound I induced cell-death at 24 hours, but not at 48 hours
effect of Bcl-2 down-regulation, alone or in combination with Bcl-XL, on the effect of Compound I (A549 cells; both 24 and 48 hours): strongly sensitized A549 cells
